Patent US10406185B2, “Cancer therapy with a parvovirus combined with a BCL-2 inhibitor” (DEUTSCHES KREBSFORSCHUNGSZENTRUM, priority 2013, dated 2019)

Experiments:
[1] = test system: U138; assay: LDH assay (cell lysis), U138; format: cell-based, human; conditions: U138, H-1PV at MOI 5, 0.5 μM inhibitor, 72 h
Description: 72 hours after infection, percentage of cells undergoing lysis was measured by LDH assay.

[2] = test system: human platelets; conditions: in contrast to ABT-737; cited from earlier work
[3] = test system: human hematologic tumour xenograft; conditions: several human hematologic tumour xenograft models; cited from earlier work
[4] = test system: peripheral blood mononuclear cells (PBMCs); conditions: non malignant PBMCs; read-out: half maximal effective concentration (EC50); cited from earlier work
[5] = test system: human glioma cell lines; assay: Sub-G1 apoptotic population by flow cytometry, eight glioma cell lines; format: cell-based; conditions: H-1PV MOI 0.5-7.5 or 0.25-5 μM ABT-737 alone, 48-96 h
Description: The occurrence of DNA fragmentation (sub-G1 cell population) in response to treatment was assessed by propidium iodide staining and flow cytometry in eight human glioma cell lines (a-h). […] Representative histogram plots are shown in the upper panel. […] Columns represent the mean values with relative standard deviation bars (lower panel).
Propidium iodide staining was performed, in order to detect apoptotic cells after treatment. The dye intercalates in the DNA, where it can be measured by flow cytometry. The fluorescence emission is proportional to the DNA content in the cells. Apoptotic cells are characterized by nuclear DNA fragmentation and can be identified by lower fluorescence emission (sub-G1 apoptotic cell population) (Riccardi & Nicoletti, 2006). […]
After 48 (U251, U138, A172, U87, NCH125), 72 (U373) or 96 (U343, NCH37) hours, from infection, supernatant and cells (harvested by trypsinization) were collected and washed with PBS. […] The cell suspension was filtered in a nylon net, and measured on a FACSCalibur (BD Biosciences, San Jose, Calif.). A minimum of 20,000 events were acquired and analyzed with the CellQuest Software (BD Biosciences). Propidium iodide was detected in the FL-2 channel. Untreated cells were used to set the gate for the apoptotic cell fraction, as they show the fluorescence emission of viable non-apoptotic cells. […]

[6] = test system: U87; assay: LDH assay (cell lysis), U87; format: cell-based, human; conditions: U87, ABT-737 alone 5 μM, 72 h
Description: (§1) LDH assays. […] 72 hours after infection, cell lysis was analyzed by LDH assay as described in the materials and methods section. Columns represent the mean values from 3 replicates with relative standard deviation bars.
(§2) H-1PV cytotoxicity was evaluated by quantification of the enzyme lactate dehydrogenase (LDH), which is released from cells due to loss of membrane integrity (lysis). The assay was performed using the CytoTox 96® Non-Radioactive Cytotoxicity Assay Kit according to the manufacturer's instructions (Promega, Heidelberg, Germany).
(§3) Cells were seeded into 96-well plates usually at the density of 4,000 cells/well in 50 μl of their respective culture media supplemented with 10% FBS. […]
(§4) Briefly, 10 μl of 10× lysis buffer [9% (v/v) Triton X-100 (AppliChem, Darmstadt, Germany) in phosphate buffered saline (PBS)] were added per well in three lines of the plate, which served as 100% cell lysis control. […] The absorbance was measured at a wavelength of 492 nm using the Multiscan ELISA Reader. […] For each condition we calculated the average of the three wells incubated (A) or not (B) with lysis buffer. The average value measured in the wells without cells (background) was subtracted from the values obtained in the wells with the cells.

[7] = test system: AsPC-1 xenografts; conditions: nude rats, treated animals
Description: 5×10^6 AsPC-1 cells were subcutaneously injected in the right flank of 5 week-old female nude rats. After 1 week (when tumour reached the volume of 200-400 mm^3), tumour-bearing animals were randomized in to four groups (n=8). […] Tumour volume was measured with a digital calliper on the days indicated and calculated according to the formula: volume […]=width^2× length/2. Rats were sacrificed when the tumour mass reached 4000 mm^3, in keeping with animal welfare regulations. Data shown represents the average values with standard deviation bars.

[8] = test system: U373, U138, U343 and NCH125 glioma cell lines; assay: Mitochondrial membrane permeabilization (MitoTracker Red), four glioma cell lines; format: cell-based, human; conditions: ABT-737 0.5-1 μM or H-1PV MOI 2.5-7.5 alone, 48-96 h
Description: 48-96 hours after infection, cells were stained with Mitotracker Red, harvested and analyzed by flow cytometry. The percentage of cells with MMP, was determined using the CellQuest Software. In the upper panel representative histogram plots are shown for each condition. In the lower panel the results of a typical experiment performed in triplicates are shown. Columns represent the mean values with relative standard deviation bars.
The fluorescent dye MitoTracker® Red CMXRos (Molecular Probes, Invitrogen, Darmstadt, Germany) that stains mitochondria in live cells was used to measure the change in MMP. Due to the formation of pores in the mitochondrial membrane, apoptotic cells cannot retain the dye and show a lower fluorescent signal in flow cytometry analysis.
Glioma cells were seeded in 6-well plates at the density of 2.5×10^5 cells/well in 3 ml of cultural medium with the exception of NCH125 cells that were seeded at the density of 6.25×10^4 cells/well. […] Cell suspension was analyzed with a FACSCalibur (BD Biosciences). At least 10,000 events were acquired and analyzed with the CellQuest Software (BD Biosciences). The average of cells undergoing MMP was calculated from three replicates.

[9] = test system: small-cell lung carcinoma; conditions: small-cell lung carcinoma xenograft mouse models; cited from earlier work
[10] = test system: human glioma cell lines; conditions: ABT-737 alone at the dosages of Table 1, 72 h, all glioma lines except U87
Description: as §1, §2, §3, §4

CC1(C)CCC(CN2CCN(c3ccc(C(=O)NS(=O)(=O)c4ccc(NCC5CCOCC5)c([N+](=O)[O-])c4)c(Oc4cnc5[nH]ccc5c4)c3)CC2)=C(c2ccc(Cl)cc2)C1 [ABT-199]
increase of H-1PV cytotoxicity in comparison to virus alone [1]: 1.7 fold
effect on human platelets [2]: spares human platelets
tumor growth [3]: inhibit tumor growth

CN(C)CC[C@H](CSc1ccccc1)Nc1ccc(S(=O)(=O)NC(=O)c2ccc(N3CCN(Cc4ccccc4-c4ccc(Cl)cc4)CC3)cc2)cc1[N+](=O)[O-] [ABT-737]
EC50 [4]: > 1000 nM
increase of H-1PV cytotoxicity in comparison to virus alone [1]: 3.8 fold
induction of apoptosis (sub-G1 population), single treatments [5]: unable to induce apoptosis efficiently
cytotoxicity of ABT-737 alone [6]: modestcytotoxic effects
loss of weight or other adverse side effects [7]: No loss of weight or other adverse side effects
effect on MMP, single treatments [8]: almost no effect on the MMP
tumour regression [9]: complete regression
cytotoxicity of ABT-737 alone [10]: no apparent cytotoxicity
